Experimental data: the supplement of paper PMC4862054

What was measured:
Details in all cases: incubation time: 72 h
[1] = tested on: MCF-10A; test: normalised response (% of control), CellTiter-Glo; higher = more viable cells (100 = DMSO, 0 = benzethonium chloride kill control)
Outline: (§1)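 Plates were normalised with 0.1 % DMSO as 100 and a positive kill control as 0. Breast cancer cell lines in 20 µl suspension had been seeded into 384-well plates with compound at 5 concentrations in 10-fold steps over a compound-specific 10,000-fold range, incubated 72 h, and read for CellTox Green fluorescence (485/520 nm) followed by CellTiter-Glo luminescence. Each value is the normalised signal at a single concentration.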

[2] = tested on: SK-BR-3; test: as above
Outline: as §1

[3] = tested on: CAL-120; test: as above
Outline: as §1

[4] = tested on: Hs578T; test: as above
Outline: as §1

[5] = tested on: HCC1937; test: as above
Outline: as §1

[6] = tested on: CAL-148; test: as above
Outline: as §1

[7] = tested on: DU-4475; test: as above
Outline: as §1

[8] = tested on: CAL-85-1; test: as above
Outline: as §1

[9] = tested on: MDA-MB-231; test: as above
Outline: as §1

[10] = tested on: CAL-51; test: as above
Outline: as §1

[11] = tested on: MDA-MB-453; test: as above
Outline: as §1

[12] = tested on: BT-474; test: as above
Outline: as §1

[13] = tested on: MDA-MB-468; test: as above
Outline: as §1

[14] = tested on: MDA-MB-436; test: as above
Outline: as §1

[15] = tested on: HCC1599; test: as above
Outline: as §1

[16] = tested on: MFM-223; test: as above
Outline: as §1

[17] = tested on: HDQ-P1; test: as above
Outline: as §1

[18] = tested on: BT-549; test: as above
Outline: as §1

[19] = tested on: HCC1143; test: as above
Outline: as §1

[20] = tested on: SK-BR-3; test: normalised viability (% of control), CellTiter-Blue; higher = more viable cells (100 = DMSO, 0 = benzethonium chloride kill control)
Outline: (§2)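 Normalised viability is given for a single listed concentration of the series. In 384-well plates, breast cancer cell lines were incubated 72 h with compound, then read with CellTiter-Blue (2 h, 37 °C) at 560/590 nm. Per-plate scaling set vehicle to 100 and a positive kill control to 0, with Z'-factor quality control.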

[21] = tested on: CAL-120; test: as above
Outline: as §2

[22] = tested on: Hs578T; test: as above
Outline: as §2

[23] = tested on: HCC1937; test: as above
Outline: as §2

[24] = tested on: CAL-148; test: as above
Outline: as §2

[25] = tested on: DU-4475; test: as above
Outline: as §2

[26] = tested on: CAL-85-1; test: as above
Outline: as §2

[27] = tested on: MDA-MB-231; test: as above
Outline: as §2

[28] = tested on: CAL-51; test: as above
Outline: as §2

[29] = tested on: MDA-MB-453; test: as above
Outline: as §2

[30] = tested on: BT-474; test: as above
Outline: as §2

[31] = tested on: MDA-MB-468; test: as above
Outline: as §2

[32] = tested on: MDA-MB-436; test: as above
Outline: as §2

[33] = tested on: HCC1599; test: as above
Outline: as §2

[34] = tested on: MFM-223; test: as above
Outline: as §2

[35] = tested on: HDQ-P1; test: as above
Outline: as §2

[36] = tested on: BT-549; test: as above
Outline: as §2

[37] = tested on: HCC1143; test: as above
Outline: as §2

| Compound | normalised response [1] [%] | normalised response [2] [%] | normalised response [3] [%] | normalised response [4] [%] | normalised response [5] [%] | normalised response [6] [%] | normalised response [7] [%] | normalised response [8] [%] | normalised response [9] [%] | normalised response [10] [%] | normalised response [11] [%] | normalised response [12] [%] | normalised response [13] [%] | normalised response [14] [%] | normalised response [15] [%] | normalised response [16] [%] | normalised response [17] [%] | normalised response [18] [%] | normalised response [19] [%] | normalised viability [20] [%] | normalised viability [21] [%] | normalised viability [22] [%] | normalised viability [23] [%] | normalised viability [24] [%] | normalised viability [25] [%] | normalised viability [26] [%] | normalised viability [27] [%] | normalised viability [28] [%] | normalised viability [29] [%] | normalised viability [30] [%] | normalised viability [31] [%] | normalised viability [32] [%] | normalised viability [33] [%] | normalised viability [34] [%] | normalised viability [35] [%] | normalised viability [36] [%] | normalised viability [37] [%] |
| --- | --- | --- | --- | --- | --- | --- | --- | --- | --- | --- | --- | --- | --- | --- | --- | --- | --- | --- | --- | --- | --- | --- | --- | --- | --- | --- | --- | --- | --- | --- | --- | --- | --- | --- | --- | --- | --- |
| Cc1cc2c(F)c(Oc3ncnn4cc(OC[C@@H](C)O)c(C)c34)ccc2[nH]1 [Brivanib] (0.1 nM) | 108 | 111 | 101 | 104 | 101 | 106 | 104 | 101 | 107 | 114 | 104 | 104 | 113 | 101 | 111 | 105 | 97.9 | 100 | 104 | 98 | 78.7 | 112 | 82.1 | 107 | 109 | 86.7 | 99.5 | 93.4 | 104 | 93.5 | 104 | 114 | 96 | 96.5 | 84.9 | 109 | 101 |
| C[C@@H](C(=O)O)c1ccc(-c2ccccc2)c(F)c1 [Tarenflurbil] (1 nM) | 85.5 | 84.6 | 98.1 | 99.1 | 92.7 | 98.8 | 95.6 | 91.3 | 98.1 | 83.3 | 103 | 93.8 | 97.1 | 102 | 113 | 93.5 | 96.8 | 103 | 94.2 | 87.9 | 93.7 | 101 | 108 | 97.1 | 111 | 92.7 | 88.8 | 110 | 107 | 114 | 107 | 103 | 128 | 97.5 | 85.4 | 99.2 | 108 |
